Results on 24 compounds are retold here after ChEMBL document CHEMBL4715725, “Structure-activity relationship studies on acremomannolipin A, the potent calcium signal modulator with a novel glycolipid structure 4: Role of acyl side chains on d-mannose” (Eur J Med Chem, 2016).

SMILES strings stand for the structures. Calls of active or inactive are those of the source. The calls are words filed in the database; no cut-off is given here.

This test concerns Schizosaccharomyces pombe. As to the kind of experiment: Suppression of Cl-sensitive growth defect in Schizosaccharomyces pombe harboring h+leu1 ura4-D18 ppb1::ura4+ mutant assessed as colony formation at 100 uM measured after 3 days in presence of MgCl2 by disc filter paper. Format: functional, organism-based. Particulars: time 3.0 day.
On to `CCCCCCC(=O)O[C@@H]1[C@H](OC[C@@H](O)[C@@H](O)[C@H](O)[C@H](O)CO)O[C@H](COC(=O)CCCCC)[C@@H](OC(=O)CCCCC)[C@@H]1OC(=O)CCCCC`, for which the outcome was Active.

`CCCCCCCCCCCCCC(=O)O[C@@H]1[C@H](OC[C@@H](O)[C@@H](O)[C@H](O)[C@H](O)CO)O[C@H](COC(=O)CCCCC)[C@@H](OC(=O)CCCCC)[C@@H]1OC(=O)CCCCC`: the outcome was Active. Regarding `CCCCCCCC(=O)O[C@@H]1[C@H](OC[C@@H](O)[C@@H](O)[C@H](O)[C@H](O)CO)O[C@H](COC(=O)CCCCCC)[C@@H](OC(=O)CCCCCC)[C@@H]1OC(=O)CCCCCC`, the result was Active.

As for `CCCCCC(=O)OC[C@H]1O[C@@H](OC[C@@H](O)[C@@H](O)[C@H](O)[C@H](O)CO)[C@@H](OC(=O)CCCC)[C@@H](OC(=O)CCCCC)[C@@H]1OC(=O)CCCCC`, the outcome was Active. Next, `CCCCCCCCCC(=O)O[C@@H]1[C@H](OC[C@@H](O)[C@@H](O)[C@H](O)[C@H](O)CO)O[C@H](COC(=O)CCCCC)[C@@H](OC(=O)CCCCC)[C@@H]1OC(=O)CCCCC`: “Active”.

With `CCCCCC(=O)OC[C@H]1O[C@@H](OC[C@@H](O)[C@@H](O)[C@H](O)[C@H](O)CO)[C@@H](O)[C@@H](OC(=O)CCCCC)[C@@H]1OC(=O)CCCCC`, the outcome was inactive. The value for `CCCCCC(=O)OC[C@H]1O[C@@H](OC[C@@H](O)[C@@H](O)[C@H](O)[C@H](O)CO)[C@@H](OC(=O)CCCCC)[C@@H](OC(=O)CCCCC)[C@@H]1OC(=O)CCCCC` was “Active”; that for `CCCCCCCC(=O)O[C@@H]1[C@H](OC[C@@H](O)[C@@H](O)[C@H](O)[C@H](O)CO)O[C@H](COC(=O)CCC)[C@@H](OC(=O)CCC)[C@@H]1OC(=O)CCC` was “Active”; that for `CCCCCCCCCCCCCCCC(=O)O[C@@H]1[C@H](OC[C@@H](O)[C@@H](O)[C@H](O)[C@H](O)CO)O[C@H](COC(=O)CCCCC)[C@@H](OC(=O)CCCCC)[C@@H]1OC(=O)CCCCC` was “Active”. Consider `CCCCCC(=O)OC[C@H]1O[C@@H](OC[C@@H](O)[C@@H](O)[C@H](O)[C@H](O)CO)[C@@H](OC(=O)CCC)[C@@H](OC(=O)CCCCC)[C@@H]1OC(=O)CCCCC`, for which the outcome was Active. The value for `CCCCC(=O)OC[C@H]1O[C@@H](OC[C@@H](O)[C@@H](O)[C@H](O)[C@H](O)CO)[C@@H](OC(=O)CCCC)[C@@H](OC(=O)CCCC)[C@@H]1OC(=O)CCCC` was “Active”. The value for `CCCCCCCC(=O)O[C@@H]1[C@H](OC[C@@H](O)[C@@H](O)[C@H](O)[C@H](O)CO)O[C@H](COC(=O)CC)[C@@H](OC(=O)CC)[C@@H]1OC(=O)CC` was “Active”. With `CCCCCCCC(=O)O[C@@H]1[C@H](OC[C@@H](O)[C@@H](O)[C@H](O)[C@H](O)CO)O[C@H](COC(=O)CCCC)[C@@H](OC(=O)CCCC)[C@@H]1OC(=O)CCCC`, the outcome was Active. The value for `CCCCCCCC(=O)O[C@@H]1[C@H](OC[C@@H](O)[C@@H](O)[C@H](O)[C@H](O)CO)O[C@H](COC(=O)CCCCC)[C@@H](OC(=O)CCCCC)[C@@H]1OC(=O)CCCCC` was “Active”; that for `CCCCCCCC(=O)OC[C@H]1O[C@@H](OC[C@@H](O)[C@@H](O)[C@H](O)[C@H](O)CO)[C@@H](OC(=O)CCCCCCC)[C@@H](OC(=O)CCCCCCC)[C@@H]1OC(=O)CCCCCCC` was “Active”. With `CCC(=O)OC[C@H]1O[C@@H](OC[C@@H](O)[C@@H](O)[C@H](O)[C@H](O)CO)[C@@H](OC(=O)CC)[C@@H](OC(=O)CC)[C@@H]1OC(=O)CC`, the result was Active. Next, `CCCC(=O)OC[C@H]1O[C@@H](OC[C@@H](O)[C@@H](O)[C@H](O)[C@H](O)CO)[C@@H](OC(=O)CCC)[C@@H](OC(=O)CCC)[C@@H]1OC(=O)CCC`: “Active”. In the case of `CCCCCC(=O)OC[C@H]1O[C@@H](OC[C@@H](O)[C@@H](O)[C@H](O)[C@H](O)CO)[C@@H](OC(=O)CC)[C@@H](OC(=O)CCCCC)[C@@H]1OC(=O)CCCCC`, the result was Active. Next, `CCCCCCCCCCC(=O)O[C@@H]1[C@H](OC[C@@H](O)[C@@H](O)[C@H](O)[C@H](O)CO)O[C@H](COC(=O)CCCCC)[C@@H](OC(=O)CCCCC)[C@@H]1OC(=O)CCCCC`: “Active”.

Consider `CCCCCCCC(=O)O[C@@H]1[C@H](OC[C@@H](O)[C@@H](O)[C@H](O)[C@H](O)CO)O[C@H](COC(=O)CCCCC)[C@@H](OC(=O)CCCCC)[C@@H]1O`, for which the outcome was inactive. The value for `CCCCCCCCCCCC(=O)O[C@@H]1[C@H](OC[C@@H](O)[C@@H](O)[C@H](O)[C@H](O)CO)O[C@H](COC(=O)CCCCC)[C@@H](OC(=O)CCCCC)[C@@H]1OC(=O)CCCCC` was “Active”; that for `CCCCCCC(=O)OC[C@H]1O[C@@H](OC[C@@H](O)[C@@H](O)[C@H](O)[C@H](O)CO)[C@@H](OC(=O)CCCCCC)[C@@H](OC(=O)CCCCCC)[C@@H]1OC(=O)CCCCCC` was “Active”; that for `CCCCCCCC(=O)O[C@@H]1[C@H](OC[C@@H](O)[C@@H](O)[C@H](O)[C@H](O)CO)O[C@H](CO)[C@@H](O)[C@@H]1OC(=O)CCCCC` was “inactive”. Turning to `CCCCCCCCC(=O)O[C@@H]1[C@H](OC[C@@H](O)[C@@H](O)[C@H](O)[C@H](O)CO)O[C@H](COC(=O)CCCCC)[C@@H](OC(=O)CCCCC)[C@@H]1OC(=O)CCCCC`, the outcome was Active.
